Like-named read-outs stand apart in the source and are kept apart here.
Columns and labels:
[1] = test system: human invasive breast ductal carcinoma cells (ATCC MCF-7); assay: Cytotoxicity assay (alamarBlue), MCF-7; assay type: cell-based; settings: read-out: IC50 MCF-7
Method: (§1) In light of this information, 1, 2 and the known polyether standards were tested against a human breast adenocarcinoma cell line (HTB-26) and a human invasive breast ductal carcinoma cell line (MCF-7). The compounds were also tested in a healthy human foreskin fibroblast cell line (BJ) and healthy Cercopithecus aethiops kidney epithelial cells (Vero) as an evaluation of cytotoxicity toward healthy cells.
(§2) The cytotoxicities of compounds 1–5 were evaluated using two healthy cell lines—human foreskin fibroblast cells (BJ, ATCC CRL-2522) and Cercopithecus aethiops kidney epithelial cells (Vero, ATCC CCL-81)—as well as two cancer cell lines—human breast adenocarcinoma cells (ATCC HTB-26) and human invasive breast ductal carcinoma cells (ATCC MCF-7). Each cell line was grown and maintained in 15 mL of Eagle’s Minimal Essential Medium in T75 cm^2 cell culture flasks with the exception of HTB-26 cells which were grown in Dulbecco’s Modified Eagle’s Medium/Nutrient Mixture F-12 Ham. All growth media were supplemented with 10% fetal bovine serum, […] penicillin and 0.1 mg/mL streptomycin; the growth medium for MCF-7 cells was also supplemented with 0.01 mg/mL human recombinant insulin. All cell cultures were incubated at 37 °C in a humidified atmosphere with 5% CO2 and culture media was refreshed every two to three days. The cells were not allowed to exceed 80% confluency. At 80% confluency, the cells were counted and diluted in their respective growth medium without addition of antibiotics. Aliquots of 90 μL were added to a microwell plate at a density of 1 × 10^4 cells/well for Vero and HTB-26 cells and 5 × 10^3 cells/well for BJ fibroblast and MCF-7 cells. The plates were incubated at 37 °C with 5% CO2 for 24 h to allow cells to adhere to the plates prior to treatment. The vehicle DMSO was used to dissolve 1 and 2 and was present at a final concentration of 1% in each of the wells. A dilution series was prepared for each cell line using the respective growth medium and 10 μL aliquots of each was added to the respective plate in concentrations ranging from 128 μg/mL to 1 μg/mL in triplicate. Positive control wells contained only the growth medium and DMSO, negative control wells contained the growth medium, DMSO and cells and positive treated controls contained the growth medium, cells and a concentration range of either zinc pyrithione (BJ fibroblast), phenoxyethanol (Vero), or doxorubicin (HTB-26 and MCF-7). All plates were incubated at 37 °C with 5% CO2 for 24 h (BJ fibroblast, Vero) or 72 h (HTB-26, MCF-7). Following incubation, alamarBlue was added to each well at a concentration of 10% (v/v). Fluorescence was measured at 560 nm excitation and 590 nm emission using a Thermo Scientific Varioskan Flash plate reader at time zero and 4 h after treatment with alamarBlue. The change in 590 nm emission reading was used to calculate percent cell viability after each treatment relative to the negative controls. The IC50 values of compounds 1–5 for each cell line were calculated using GraphPad Prism 6.0.

[2] = test system: human breast adenocarcinoma cells (ATCC HTB-26); assay: Cytotoxicity assay (alamarBlue), HTB-26; assay type: cell-based; settings: read-out: IC50 HTB-26
Method: as §1, §2

[3] = test system: methicillin-resistant S. aureus ATCC 33591 (MRSA); assay: Antimicrobial assay (OD600 growth, CLSI microdilution), MRSA; assay type: cell-based, Staphyloccocus aureus; settings: Staphylococcus aureus, 22 h, read-out: IC50 MRSA
Method: (§3) The antimicrobial activities of 1 and 2 were evaluated against a panel of pathogens. For comparison, three known polyether ionophore standards were selected and tested in parallel. […] Furthermore, salinomycin and monensin are currently approved and marketed as antibiotics and anticoccidial agents for cattle and poultry. The compounds were each tested against the Gram-positive pathogens methicillin-resistant Staphyloccocus aureus (MRSA), vancomycin resistant Enterococcus faecium (VRE) and Staphylococcus warneri, Gram-negative pathogens Pseudomonas aeruginosa and Proteus vulgaris, and the yeast Candida albicans. No activity was observed against P. aeruginosa, P. vulgaris or C. albicans at the highest concentration tested (128 μg/mL).
(§4) The antimicrobial activities of 1–5 were evaluated using a panel of human pathogens including methicillin-resistant S. aureus ATCC 33591 (MRSA), vancomycin resistant E. faecium EF379 (VRE), S. warneri ATCC 17917, P. aeruginosa ATCC 14210, P. vulgaris ATCC 12454 and C. albicans ATCC 14035. Assays were performed according to Clinical Laboratory Standards Institute testing standards in a 96-well plate and in triplicate. Compounds 1–5 were dissolved in sterile 20% DMSO and serially diluted creating a range of twelve concentrations between 128 μg/mL and 0.0625 μg/mL. A Thermo Scientific Varioskan Flash plate reader was used to determine cell growth by measuring the optical density at 600 nm at time zero and after incubation at 37 °C for 22 h. The change in OD600 was calculated, percentages of microorganism survival were compared to the vehicle control wells and IC50 values were determined using GraphPad Prism 6.0 (GraphPad Software, San Diego, CA, USA). Control antibiotics used were vancomycin for MRSA and S. warneri, rifampicin for VRE, gentamycin for P. aeruginosa, ciprofloxacin for P. vulgaris and nystatin for C. albicans.

[4] = test system: Cercopithecus aethiops kidney epithelial cells (Vero, ATCC CCL-81); assay: Cytotoxicity assay (alamarBlue), Vero; assay type: cell-based; settings: Chlorocebus sabaeus, 24 h, read-out: IC50 Vero
Method: as §1, §2

[5] = test system: vancomycin resistant E. faecium EF379 (VRE); assay: Antimicrobial assay (OD600 growth, CLSI microdilution), VRE; assay type: cell-based, Enterococcus faecium; settings: 22 h, read-out: IC50 VRE
Method: The antimicrobial activities of 1 and 2 were evaluated against a panel of pathogens. For comparison, three known polyether ionophore standards were selected and tested in parallel. […] The compounds were each tested against the Gram-positive pathogens methicillin-resistant Staphyloccocus aureus (MRSA), vancomycin resistant Enterococcus faecium (VRE) and Staphylococcus warneri, Gram-negative pathogens Pseudomonas aeruginosa and Proteus vulgaris, and the yeast Candida albicans.
as §4, with “Compounds 1–5 were dissolved in sterile 20% DMSO and serially diluted creating a range of twelve concentrations between 128 μg/mL and 0.0625 μg/mL.” left out

[6] = test system: human foreskin fibroblast cells (BJ, ATCC CRL-2522); assay: Cytotoxicity assay (alamarBlue), BJ; assay type: cell-based; settings: 24 h, read-out: IC50 BJ
Method: as §1, §2

S. warneri ATCC 17917 = assay: Antimicrobial assay (OD600 growth, CLSI microdilution), S. warneri; assay type: cell-based; settings: Staphylococcus warneri, read-out: IC50 S. warneri
Method: as §3, §4

[7] = MCF7, average ± SE (n = 3), 72 h, alamarBlue, breast cancer cell line
[8] = HTB26, average ± SE (n = 3), 72 h, alamarBlue, breast cancer cell line
[9] = average ± SE (n = 6), 37 °C, OD600
[10] = average ± SE (n = 3), alamarBlue, healthy cell line
[11] = ATCC17917, average ± SE (n = 6), 37 °C, 22 h, OD600

Row | SMILES | IC50 [1, 7] [µM] | IC50 [2, 8] [µM] | IC50 [3, 9] [µM] | IC50 [4, 10] [µM] | IC50 [5, 9] [µM] | IC50 [6, 10] [µM] | IC50 (S. warneri ATCC 17917; [11]) [µM] | IC50 [3] [µM] | IC50 [5] [µM] | IC50 ([1]; MCF7, 72 h) [µM] | IC50 ([2]; HTB26, 72 h) [µM] | IC50 [4] [µM] | IC50 [6] [µM] | IC50 (S. warneri ATCC 17917; ATCC17917, 22 h) [µM]
1 | COc1cccc2c1C(=O)c1c(O)c3c(c(O)c1C2=O)C[C@@](O)(C(=O)CO)C[C@@H]3O[C@H]1C[C@H](N)[C@H](O)[C@H](C)O1 [doxorubicin control, doxorubicin] | 0.8 ± 0.1 | 4 ± 2 |  |  |  |  |  |  |  |  |  |  |  | 
2 | CC[C@@]1([C@@H]2O[C@@H]([C@H]3O[C@@](O)(CO)[C@H](C)C[C@@H]3C)C[C@@H]2C)CC[C@H]([C@]2(C)CC[C@]3(C[C@H](O)[C@@H](C)[C@@H]([C@@H](C)[C@@H](OC)[C@H](C)C(=O)O)O3)O2)O1 [monensin (4), monensin] | 7 ± 2 | 10 ± 1 | 1.5 ± 0.1 | 10000 | 8 ± 5 | 245 ± 11 | 2 ± 0.2 |  |  |  |  |  |  | 
3 | CO[C@@H]1C[C@@H](C[C@H]2CC[C@H](C)[C@H]([C@@H](C)C(=O)O)O2)O[C@]2(O[C@](C)([C@H]3CC[C@@](C)([C@@H]4O[C@@H]([C@H]5O[C@@](O)(CO)[C@H](C)C[C@@H]5C)C[C@@H]4C)O3)C[C@H]2C)[C@@H]1C [nigericin (5), nigericin] | 9 ± 3 | 13 ± 2 | 0.2 ± 0.1 | 61 ± 8 | 0.5 ± 0.1 | 221 ± 10 | 0.3 ± 0.1 |  |  |  |  |  |  | 
4 | CO[C@H]1/C=C/O[C@@]2(C)Oc3c(C)c(O)c4c(O)c(c(/C=N/N5CCN(C)CC5)c(O)c4c3C2=O)NC(=O)/C(C)=C\C=C\[C@H](C)[C@H](O)[C@@H](C)[C@@H](O)[C@@H](C)[C@H](OC(C)=O)[C@@H]1C [rifampicin control, rifampicin] |  |  |  |  | 1.1 ± 0.1 |  |  |  |  |  |  |  |  | 
5 | CC[C@@H](C(=O)[C@@H](C)[C@@H](O)[C@H](C)[C@@H]1O[C@@H]([C@@H](CC)C(=O)O)CC[C@@H]1C)[C@H]1O[C@]2(C=C[C@@H](O)[C@]3(CC[C@@](C)([C@H]4CC[C@](O)(CC)[C@H](C)O4)O3)O2)[C@H](C)C[C@@H]1C [salinomycin (3), salinomycin] | 10 ± 3 | 13 ± 1 |  | 78 ± 22 |  | 196 ± 3 | 0.9 ± 0.2 | 0.4 ± 0.1 | 0.8 ± 0.2 |  |  |  |  | 
6 | C[C@@H]1C[C@H](C)[C@@](O)(C[C@H]2O[C@@](O)(C[C@@H](O)[C@@H](C)C(=O)[C@](C)(O)[C@@H]3CC[C@@](C)([C@H]4CC[C@@](C)(O)[C@H](C)O4)O3)[C@H](C)C[C@@H]2C)O[C@H]1C[C@H]1CC[C@H](C)[C@@H]([C@@H](C)C(=O)O)O1 [terrosamycin A (1), terrosamycin A] |  |  |  |  |  |  |  | 0.5 ± 0.2 | 0.58 ± 0.04 | 6 ± 1 | 10.1 ± 0.6 | 36 ± 6 | 79 ± 5 | 0.9 ± 0.3
7 | CO[C@@]1(C[C@@H](O)[C@@H](C)C(=O)[C@](C)(O)[C@@H]2CC[C@@](C)([C@H]3CC[C@@](C)(O)[C@H](C)O3)O2)O[C@H](C[C@@]2(OC)O[C@@H](C[C@H]3CC[C@H](C)[C@@H]([C@@H](C)C(=O)O)O3)[C@H](C)C[C@@H]2C)[C@@H](C)C[C@H]1C [terrosamycin B (2), terrosamycin B] |  |  |  |  |  |  |  | 0.34 ± 0.04 | 0.5 ± 0.1 | 3.9 ± 0.4 | 6 ± 1 | 93 ± 4 | 267 ± 28 | 0.7 ± 0.1
8 | CN[C@H](CC(C)C)C(=O)N[C@H]1C(=O)N[C@@H](CC(N)=O)C(=O)N[C@H]2C(=O)N[C@H]3C(=O)N[C@H](C(=O)N[C@H](C(=O)O)c4cc(O)cc(O)c4-c4cc3ccc4O)[C@H](O)c3ccc(c(Cl)c3)Oc3cc2cc(c3O[C@@H]2O[C@H](CO)[C@@H](O)[C@H](O)[C@H]2O[C@H]2C[C@](C)(N)[C@H](O)[C@H](C)O2)Oc2ccc(cc2Cl)[C@H]1O [vancomycin control, vancomycin] |  |  |  |  |  |  |  | 0.8 ± 0.1 |  |  |  |  |  | 0.53 ± 0.01
